Data as given in US20200405868A1, “GEL-FORMING POLYPEPTIDES” (priority 2018, published 2020).
The star is where a group is joined. Palmitoyl = CCCCCCCCCCCCCCCC(=O)*

Assay: Compound gel-forming ability in water (visual inspection, tube tapping assay, tilted tube assay);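 note: peptides mixed with de-ionized water at about 22-25 °C, judged after 20 min by eye plus tube tapping (10 taps, moves counted) and 90° tilt mobility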
Type: physicochemical
Details: for gel formation at 11% w/w: 11% w/w in water; for gel formation in aqueous solution, 6% / propensity to form gels, chimeric or mutated polypeptides, 6%: 6% w/w; for gel formation in aqueous solution, 11% / propensity to form gels, chimeric or mutated polypeptides, 11%: 11% w/w; for propensity to form gels, chimeric or mutated polypeptides, 6% / propensity to form gels, chimeric or mutated polypeptides, 11% / propensity to form gels, chimeric or mutated polypeptides, 3% / propensity to form gels, chimeric or mutated polypeptides, 20%: Table 5; for gel formation at 6% w/w: 6% w/w in water; for Physical property at 11% w/w: Table 2, 11% w/w in aqueous solution, room temperature; for gel formation in aqueous solution, 20% / propensity to form gels, chimeric or mutated polypeptides, 20%: 20% w/w; for gel formation at 20% w/w: 20% w/w in water
Protocol: Determination of Compound Gel-forming Ability in Water: To determine the solubility of polypeptides at room temperature, 1, 2, 3, 4, 5, 20, or 100 mg of a selected peptide is weighed and deposited into a clear plastic or glass vial and an aliquot of de-ionized water was then added to the vial. The procedure takes place in a room which is maintained at approximately 22-25° C. […] Insoluble peptides sample retained the particles or paste-like characteristics after 20 min of reaction. In addition to visual inspection, we performed a tube tapping assay and a tilted tube assay to differentiate the gelling status of peptide solutions.
To determine the solubility of polypeptides at room temperature, 1, 2, 3, 4, 5, 20, or 100 mg of a selected peptide is weighed and deposited into a clear plastic vial and an aliquot of de-ionized water was then added to the vial. The procedure takes place in a room which is maintained at approximately 22-25° C. Polypeptide sample which is considered soluble dissolves instantly in water and stays as a clear solution without obvious macroscopic change in viscosity at 20 min after mixing with water. […] If macroscopic particles of peptides remain in the solution at 20 min after mixing with water, the peptide is considered insoluble or precipitated at the given concentration. In this case, the quality of peptides is further judged by two other criteria: (1) mobility following a tapping of the tube (tube tapping assay) and (2) mobility flowing tilting the tube by 900 (tilted tube assay). In the first assay, the tube is tapped with the finger for 10 times, and the number of times that the body of the solution changes position is recorded. An aqueous solution such as water will have a score of 9 or 10 in this assay; meaning that the body of the liquid moves every time when one taps the tube. […] Those with moderate viscosity form liquid gel that changes the conformation slowly when the container tube is tapped with a finger or tilted. […] If macroscopic change in the position of the body of gel was observed 5-9 time out of 10 separate tapping tests, the gel is considered a liquid gel. The high viscosity of a liquid gel is further confirmed using the tilted tube assay. […] If the liquid or gel body takes more than 15 seconds to flow to the bottom of the tilted tube, the resulting aqueous mass is considered a liquid gel.
To allow systematic analysis of the gel-forming ability, the assay was first conducted at a peptide concentration of 11% w/w in aqueous solution. The peptides analyzed included functional regulators of cell surface receptors, enzymes, complement factors, antimicrobial peptides, immunomodulators, therapeutic peptides, cell-penetrating peptide, antigens, matrikines, and analogs of CGRP, adrenomedullin and adenomedullin 2 (or intermedin).

Substance: Pal-HSDAAVDTSSEITTKDLKEKKEVVEEAEN-NH2 [SEQ ID NO:267]
- gel formation at 11% w/w: semisolid gel
- gel formation in aqueous solution, 6% (Table 3): SS (SS for semisolid gel)
- gel formation in aqueous solution, 11% (Table 3): SS (SS for semisolid gel)
- propensity to form gels, chimeric or mutated polypeptides, 6%: SS (An ability to form semisolid gel is represented by an SS)
- propensity to form gels, chimeric or mutated polypeptides, 11%: SS (An ability to form semisolid gel is represented by an SS)

Substance: Pal-HSY-(D-Ala)-GF(D-Leu)-NH2 [SEQ ID NO:213]
- gel formation at 3% w/w (3% w/w in water): semisolid gels
- gel formation in aqueous solution, 3% (Table 3, 3% w/w): SS (SS for semisolid gel)

Substance: Pal-HSY-(D-Met)-FHLMD-NH2 [SEQ ID NO:211]
- gel formation at 6% w/w: semisolid or liquid gel
- gel formation at 11% w/w: semisolid gel
- gel formation in aqueous solution, 11% (Table 3): SS (SS for semisolid gel)

Substance: Pal-HSY-(D-Phe)-QWAVGHL-(4-Cl)Phe-NH2 [SEQ ID NO:255]
- gel formation in aqueous solution, 11% (Table 3): SS (SS for semisolid gel)
- propensity to form gels, chimeric or mutated polypeptides, 3% (3% w/w): AS/IS
- propensity to form gels, chimeric or mutated polypeptides, 11%: SS (An ability to form semisolid gel is represented by an SS)

Substance: Pal-HSY-NH2 [SEQ ID NO:120]
- Physical property at 11% w/w: SS (SS for semisolid gel)

Substance: Pal-HSY-Nle-cyclo[Asp-His-D-Phe-Arg-Trp-Lys]-NH2 [SEQ ID NO:257]
- gel formation in aqueous solution, 11% (Table 3): SS (SS for semisolid gel)
- gel formation in aqueous solution, 20% (Table 3): SS (SS for semisolid gel)
- propensity to form gels, chimeric or mutated polypeptides, 11%: SS (An ability to form semisolid gel is represented by an SS)
- propensity to form gels, chimeric or mutated polypeptides, 20%: SS (An ability to form semisolid gel is represented by an SS)

Substance: Pal-HSYAAVDTSSEITTKDLKEKKEVVEEAEN-NH2 [SEQ ID NO:240]
- gel formation at 11% w/w: semisolid gel
- gel formation in aqueous solution, 6% (Table 3): AS/IS (AS/IS for aqueous solution or insoluble)
- gel formation in aqueous solution, 11% (Table 3): SS (SS for semisolid gel)
- propensity to form gels, chimeric or mutated polypeptides, 6%: AS/IS
- propensity to form gels, chimeric or mutated polypeptides, 11%: SS (An ability to form semisolid gel is represented by an SS)

Substance: Pal-HSYADAIFTNSYRKVLGQLSARKLLQDIMSR-NH2 (Palmitoyl-HSYADAIFTNSYRKVLGQLSARKLLQDIMSR-NH2; SMILES CCCCCCCCCCCCCCCC(=O)N[C@@H](Cc1c[nH]cn1)C(=O)N[C@@H](CO)C(=O)N[C@@H](Cc1ccc(O)cc1)C(=O)N[C@@H](C)C(=O)N[C@@H](CC(=O)O)C(=O)N[C@@H](C)C(=O)N[C@H](C(=O)N[C@@H](Cc1ccccc1)C(=O)N[C@H](C(=O)N[C@@H](CC(N)=O)C(=O)N[C@@H](CO)C(=O)N[C@@H](Cc1ccc(O)cc1)C(=O)N[C@@H](CCCNC(=N)N)C(=O)N[C@@H](CCCCN)C(=O)N[C@H](C(=O)N[C@@H](CC(C)C)C(=O)NCC(=O)N[C@@H](CCC(N)=O)C(=O)N[C@@H](CC(C)C)C(=O)N[C@@H](CO)C(=O)N[C@@H](C)C(=O)N[C@@H](CCCNC(=N)N)C(=O)N[C@@H](CCCCN)C(=O)N[C@@H](CC(C)C)C(=O)N[C@@H](CC(C)C)C(=O)N[C@@H](CCC(N)=O)C(=O)N[C@@H](CC(=O)O)C(=O)N[C@H](C(=O)N[C@@H](CCSC)C(=O)N[C@@H](CO)C(=O)N[C@@H](CCCNC(=N)N)C(N)=O)[C@@H](C)CC)C(C)C)[C@@H](C)O)[C@@H](C)CC) [SEQ ID NO:237]
- gel formation at 20% w/w: semisolid gel
- gel formation in aqueous solution, 6% (Table 3): AS/IS (AS/IS for aqueous solution or insoluble)
- gel formation in aqueous solution, 11% (Table 3): AS/IS (AS/IS for aqueous solution or insoluble)
- gel formation in aqueous solution, 20% (Table 3): SS (SS for semisolid gel)
- propensity to form gels, chimeric or mutated polypeptides, 6%: AS/IS
- propensity to form gels, chimeric or mutated polypeptides, 11%: AS/IS
- propensity to form gels, chimeric or mutated polypeptides, 20%: SS (An ability to form semisolid gel is represented by an SS)

Substance: Pal-HSYEEMQRR-NH2 [SEQ ID NO:250]
- gel formation at 11% w/w: semisolid gel
- gel formation in aqueous solution, 6% (Table 3): AS/IS (AS/IS for aqueous solution or insoluble)
- gel formation in aqueous solution, 11% (Table 3): SS (SS for semisolid gel)
- propensity to form gels, chimeric or mutated polypeptides, 6%: AS/IS
- propensity to form gels, chimeric or mutated polypeptides, 11%: SS (An ability to form semisolid gel is represented by an SS)

Substance: Pal-HSYFFGLM-NH2 [SEQ ID NO:253]
- gel formation in aqueous solution, 6% (Table 3): AS/IS (AS/IS for aqueous solution or insoluble)
- gel formation in aqueous solution, 11% (Table 3): SS (SS for semisolid gel)
- propensity to form gels, chimeric or mutated polypeptides, 6%: AS/IS
- propensity to form gels, chimeric or mutated polypeptides, 11%: SS (An ability to form semisolid gel is represented by an SS)

Substance: Pal-HSYGTFTSDVSSYLEGQAAKEFIAWLVKGR-NH2 (Palmitoyl-HSYGTFTSDVSSYLEGQAAKEFIAWLVKGR-NH2; SMILES CCCCCCCCCCCCCCCC(=O)N[C@@H](Cc1c[nH]cn1)C(=O)N[C@@H](CO)C(=O)N[C@@H](Cc1ccc(O)cc1)C(=O)NCC(=O)N[C@H](C(=O)N[C@@H](Cc1ccccc1)C(=O)N[C@H](C(=O)N[C@@H](CO)C(=O)N[C@@H](CC(=O)O)C(=O)N[C@H](C(=O)N[C@@H](CO)C(=O)N[C@@H](CO)C(=O)N[C@@H](Cc1ccc(O)cc1)C(=O)N[C@@H](CC(C)C)C(=O)N[C@@H](CCC(=O)O)C(=O)NCC(=O)N[C@@H](CCC(N)=O)C(=O)N[C@@H](C)C(=O)N[C@@H](C)C(=O)N[C@@H](CCCCN)C(=O)N[C@@H](CCC(=O)O)C(=O)N[C@@H](Cc1ccccc1)C(=O)N[C@H](C(=O)N[C@@H](C)C(=O)N[C@@H](Cc1c[nH]c2ccccc12)C(=O)N[C@@H](CC(C)C)C(=O)N[C@H](C(=O)N[C@@H](CCCCN)C(=O)NCC(=O)N[C@@H](CCCNC(=N)N)C(N)=O)C(C)C)[C@@H](C)CC)C(C)C)[C@@H](C)O)[C@@H](C)O) [SEQ ID NO:221]
- gel formation in aqueous solution, 6% (Table 3): SS (SS for semisolid gel)
- propensity to form gels, chimeric or mutated polypeptides, 6%: SS (An ability to form semisolid gel is represented by an SS)

Substance: Pal-HSYH-(D-Phe)-RWGKPV-NH2 [SEQ ID NO:273]
- gel formation in aqueous solution, 11% (Table 3): SS (SS for semisolid gel)
- gel formation in aqueous solution, 20% (Table 3): SS (SS for semisolid gel)
- propensity to form gels, chimeric or mutated polypeptides, 11%: SS (An ability to form semisolid gel is represented by an SS)
- propensity to form gels, chimeric or mutated polypeptides, 20%: SS (An ability to form semisolid gel is represented by an SS)

Substance: Pal-HSYKRPPGFS-(DβNal)-Ile-NH2 [SEQ ID NO:261]
- gel formation at 6% w/w: liquid gel
- gel formation at 11% w/w: semisolid gel
- gel formation in aqueous solution, 11% (Table 3): SS (SS for semisolid gel)
- propensity to form gels, chimeric or mutated polypeptides, 3% (3% w/w): AS/IS
- propensity to form gels, chimeric or mutated polypeptides, 11%: SS (An ability to form semisolid gel is represented by an SS)

Substance: Pal-HSYRPKPQQFF-Sar-L-Met-(02)-NH2 [SEQ ID NO:254]
- gel formation in aqueous solution, 20% (Table 3): SS (SS for semisolid gel)
- propensity to form gels, chimeric or mutated polypeptides, 20%: SS (An ability to form semisolid gel is represented by an SS)

Substance: Pal-HSYSLDVPIGLLQILLEQARARAAREQATTNARILARVGHC-NH2 [SEQ ID NO:265]
- gel formation at 20% w/w: semisolid or liquid gel
- gel formation in aqueous solution, 11% (Table 3): AS/IS (AS/IS for aqueous solution or insoluble)
- propensity to form gels, chimeric or mutated polypeptides, 11%: AS/IS

Substance: Pal-HSYVMGHFRWDRF-NH2 [SEQ ID NO:260]
- gel formation at 6% w/w: liquid gel

Substance: Pal-KPSSPHSY-NH2 (Palmitoyl-KPSSPHSY-NH2; SMILES CCCCCCCCCCCCCCCC(=O)N[C@@H](CCCCN)C(=O)N1CCC[C@H]1C(=O)N[C@@H](CO)C(=O)N[C@@H](CO)C(=O)N1CCC[C@H]1C(=O)N[C@@H](Cc1c[nH]cn1)C(=O)N[C@@H](CO)C(=O)N[C@@H](Cc1ccc(O)cc1)C(N)=O) [SEQ ID NO:118]
- Physical property at 11% w/w: SS (SS for semisolid gel)

Substance: Pal-KSY-NH2 [SEQ ID NO:121]
- Physical property at 11% w/w: SS (SS for semisolid gel)

Substance: Pal-KVQKLAHQIYQFTD(Aib)DSAPVDPSSPHSY-NH2 [SEQ ID NO:124]
- Physical property at 11% w/w: SS (SS for semisolid gel)

Substance: Pal-KVQKLAHQIYQFTDK(Aib)SAPVDPSSPHSY-NH2 [SEQ ID NO:125]
- Physical property at 11% w/w: AS/IS (AS/IS for aqueous solution or insoluble)

Substance: Pal-KVQKLAHQIYQFTDKD(Aib)APVDPSSPHSY-NH2 [SEQ ID NO:126]
- Physical property at 11% w/w: SS (SS for semisolid gel)

Substance: Pal-KVQKLAHQSAPVDPSSPHSY-NH2 [SEQ ID NO:105]
- Physical property at 11% w/w: AS/IS (AS/IS for aqueous solution or insoluble)

Substance: Pal-KVQKLNFVPTNVGSKAF-NH2 [SEQ ID NO:135]
- Physical property at 11% w/w: AS/IS (AS/IS for aqueous solution or insoluble)

Substance: Pal-KVQKLNFVPTNVGSKAY-NH2 (Palmitoyl-KVQKLNFVPTNVGSKAY-NH2; SMILES CCCCCCCCCCCCCCCC(=O)N[C@@H](CCCCN)C(=O)N[C@H](C(=O)N[C@@H](CCC(N)=O)C(=O)N[C@@H](CCCCN)C(=O)N[C@@H](CC(C)C)C(=O)N[C@@H](CC(N)=O)C(=O)N[C@@H](Cc1ccccc1)C(=O)N[C@H](C(=O)N1CCC[C@H]1C(=O)N[C@H](C(=O)N[C@@H](CC(N)=O)C(=O)N[C@H](C(=O)NCC(=O)N[C@@H](CO)C(=O)N[C@@H](CCCCN)C(=O)N[C@@H](C)C(=O)N[C@@H](Cc1ccc(O)cc1)C(N)=O)C(C)C)[C@@H](C)O)C(C)C)C(C)C) [SEQ ID NO:139]
- Physical property at 11% w/w: SS (SS for semisolid gel)
